From patent US11897865B2, “ABHD12 inhibitors and methods of making and using same” (THE SCRIPPS RESEARCH INSTITUTE, priority 2018, dated 2024) come the findings set out here.

The target in the first assay is T1, ABHD12 (Mus musculus, UniProt Q99LR1).
T1 construct: from tissue; host or cells: brain membrane proteome
T1 sequence (Q99LR1 1-398): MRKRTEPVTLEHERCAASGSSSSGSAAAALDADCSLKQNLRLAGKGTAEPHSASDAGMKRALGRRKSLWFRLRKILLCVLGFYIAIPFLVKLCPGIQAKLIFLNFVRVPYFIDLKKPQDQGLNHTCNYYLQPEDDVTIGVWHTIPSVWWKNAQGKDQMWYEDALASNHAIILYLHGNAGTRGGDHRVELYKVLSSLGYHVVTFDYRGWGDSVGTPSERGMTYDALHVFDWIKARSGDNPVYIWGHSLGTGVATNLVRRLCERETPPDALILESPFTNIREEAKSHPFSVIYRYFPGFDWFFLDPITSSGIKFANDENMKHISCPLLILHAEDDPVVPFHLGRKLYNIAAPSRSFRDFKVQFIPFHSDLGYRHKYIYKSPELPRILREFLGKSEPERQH
Briefly: Gel-based competitive ABPP, JJH350 probe vs brain membrane proteome. The settings on record: 10 μM compound, read-out: % Inhibition @ 10 μM (ABPP gel_JJH350 probe vs brain mem). The format is biochemical. How it is done:
Gel-Based Competitive ABPP for In Vitro Inhibitor Treatment of Proteomes:
Gel-based ABPP assays were performed as previously reported (Bachovchin, D. A. et al. Superfamily-wide portrait of serine hydrolase inhibition achieved by library-versus-library screening. Proc. Natl. Acad. Sci. U. S. A. 2010, 107, 20941-20946). Cell or tissue proteomes (50 μL, 1 mg/mL) were treated with either FP-Rh (1 μM final concentration) or JJH350 (2 μM final concentration) for 45 min at 37° C. For FP-Rh labeled samples, the reactions were quenched by adding 20 μL of 4× SDS-PAGE loading buffer. The 30 μL of the quenched samples were loaded on gel for analysis. For (S)-1,3-dioxo-7-(4-phenoxybenzoyl)hexahydroimidazo[1,5-a]pyrazin-2(3H)-yl 4-(4-(prop-2-yn-1-yloxy)phenyl)piperazine-1-carboxylate (JJH350)-labeled samples, copper-catalyzed azide-alkyne cycloaddition (CuAAC) was used for visualizing the labeled proteins following the reported protocol. Briefly, rhodamine-PEG3-N3 (1 μL/reaction, 1.25 mM in DMSO), CuSO4 (1 μL/reaction, 50 mM in H2O), TBTA (3 μL/reaction, 1.7 mM in DMSO/t-BuOH [1:4, v/v]) and tris(2-carboxyethyi)phosphine (TCEP) (1 μL/reaction, 50 mM in H2O, freshly prepared) were premixed. 6 μL of this click reagent mixture was immediately added to each JJH350-labeled samples (50 μL, 1 mg/mL) and incubated for 1 h at room temperature. The reactions were quenched by adding 20 μL of 4× SDS-PAGE loading buffer. The 40 μL of the quenched samples were loaded on a gel for analysis.
After separation by SDS-PAGE (10% acrylamide), samples were visualized by in-gel fluorescence scanning using the ChemiDoc MP system (Bio-Rad). Band intensities were quantified using the Image Lab (5.2.1) software (Bio-Rad).
As usually defined, the inhibition is how much of the control response was suppressed. Take `FC(F)(F)Oc1ccc(Oc2ccnc(N3CCC(NC(=S)Nc4cccnc4)CC3)c2)c(Cl)c1` [Example 55, 1-(1-(4-(2-Chloro-4-(trifluoromethoxy)phenoxy)pyridin-2-yl)piperidin-4-yl)-3-(pyridin-3-yl)thiourea]: the inhibition at 10 µM was at least 75%.
As for `S=C(Nc1cccnc1)NC1CCN(c2cc(OCCC3CC3)ccn2)CC1` [Example 33, 1-(1-(4-(2-Cyclopropylethoxy)pyridin-2-yl)piperidin-4-yl)-3-(pyridin-3-yl)thiourea], the inhibition at 10 µM was at least 75%.
`CCCCCc1ccc(Oc2ccnc(N3CCC(NC(=S)Nc4cccnc4)CC3)c2)cc1` [Example 61, 1-(1-(4-(4-Pentylphenoxy)pyridin-2-yl)piperidin-4-yl)-3-(pyridin-3-yl)thiourea]: the inhibition at 10 µM is at least 75%.
The same measure, in the same setting: under `S=C(Nc1cccnc1)NC1CCN(c2ccc(Cl)cn2)CC1` [Example 11, 1-(1-(5-Chloropyridin-2-yl)piperidin-4-yl)-3-(pyridin-3-yl)thiourea] stands at least 75%; under `FC(F)(F)c1cnc(N2CCC(NC(=S)Nc3cccnc3)CC2)nc1` [Example 78, 1-(Pyridin-3-yl)-3-(1-(5-(trifluoromethyl)pyrimidin-2-yl)piperidin-4-yl)thiourea], 50 to 75%; under `S=C(Nc1cccnc1)NC1CCN(c2ncccc2Cl)CC1` [Example 17, 1-(1-(3-Chloropyridin-2-yl)piperidin-4-yl)-3-(pyridin-3-yl)thiourea], 50 to 75%.
The same measure, in the same setting: under `CC(C)OC(=O)N1CCC(Oc2ccnc(N3CCC(NC(=S)Nc4cccnc4)CC3)c2)CC1` [Example 36, Isopropyl 4-((2-(4-(3-(pyridin-3-yl)thioureido)piperidin-1-yl)pyridin-4-yl)oxy)piperidine-1-carboxylate] stands 50 to 75%; under `S=C(Nc1cccnc1)NC1CCN(c2cc(OCC3CC3)ccn2)CC1` [Example 31, 1-(1-(4- (Cyclopropylmethoxy)pyridin-2-yl)piperidin-4-yl)-3-(pyridin-3-yl)thiourea], at least 75%.
On the same count and under the same terms, the result for `S=C(Nc1cccnc1)NC1CCN(c2cc(OCc3ccccc3)ccn2)CC1` [Example 37, 1-(1-(4-(Benzyloxy)pyridin-2-yl)piperidin-4-yl)-3-(pyridin-3-yl)thiourea] reads at least 75%; that for `FC(F)Oc1ccc(Oc2ccnc(N3CCC(NC(=S)Nc4cccnc4)CC3)c2)cc1` [Example 62, 1-(1-(4-(4-(Difluoromethoxy)phenoxy)pyridin-2-yl)piperidin-4-yl)-3-(pyridin-3-yl)thiourea], at least 75%.
In the case of `FC(F)(F)Oc1ccc(-c2ccnc(N3CCC(NC(=S)Nc4cccnc4)CC3)c2)cc1` [Example 22, 1-(Pyridin-3-yl)-3-(1-(4-(4-(trifluoromethoxy)phenyl)pyridin-2-yl)piperidin-4-yl)thiourea], the inhibition at 10 µM is at least 75%.
On the same count and under the same terms, the result for `FC1(F)CCC(Oc2ccnc(N3CCC(NC(=S)Nc4cccnc4)CC3)c2)CC1` [Example 35, 1-(1-(4-((4,4-Difluoro-cyclohexyl)oxy)pyridin-2-yl)piperidin-4-yl)-3-(pyridin-3-yl)thiourea] reads at least 75%.

Still in this assay, the particulars now being: read-out: IC50 (ABPP gel_JJH350 probe vs brain mem).
Usually IC50 stands for the concentration that gives 50% inhibition. On to `Fc1ccc(Oc2ccnc(N3CCC(NC(=S)Nc4cccnc4)CC3)c2Cl)cc1OC(F)(F)F` [Example 68, 1-(1-(3-Chloro-4-(4-fluoro-3-(trifluoromethoxy)phenoxy)pyridin-2-yl)piperidin-4-yl)-3-(pyridin-3-yl)thiourea], for which the IC50 was at most 100 nM.
The same measure, in the same setting: under `S=C(Nc1cccnc1)NC1CCN(c2cc(OCC3CC3)ccn2)CC1` [Example 31, 1-(1-(4- (Cyclopropylmethoxy)pyridin-2-yl)piperidin-4-yl)-3-(pyridin-3-yl)thiourea] stands 1000 to 25000 nM; under `S=C(Nc1cccnc1)NC1CCN(c2cc(OCc3ccccc3)ccn2)CC1` [Example 37, 1-(1-(4-(Benzyloxy)pyridin-2-yl)piperidin-4-yl)-3-(pyridin-3-yl)thiourea], 1000 to 25000 nM.
As for `Fc1cc(Oc2ccnc(N3CCC(NC(=S)Nc4cccnc4)CC3)c2Cl)ccc1OC(F)(F)F` [Example 64, 1-(1-(3-Chloro-4-(3-fluoro-4-(trifluoromethoxy)phenoxy)pyridin-2-yl)piperidin-4-yl)-3-(pyridin-3-yl)thiourea], the IC50 is at most 100 nM.
